Laboratory results: patent publication US20230104124A1, “N-PALMITOYLETHANOLAMIDE AND DOCOSAHEXAENOIC ACID FOR USE IN THE TREATMENT OF AUTISM SPECTRUM DISORDER AND OTHER DEPRESSIVE SYNDROMES” (EPITECH GROUP S.P.A., priority 2021, published 2023)

Assays:
[1] = intravenous infusion; during the 60 hours of administration; cited from earlier work
BTBR mice [2] = assay: Marble Burying test in BTBR mice; format: in vivo; conditions: per os daily for 10 days, PEA-um 1 mg/kg, DHA 5 mg/kg (30 mg/kg DHA 17% titer), 8 animals per group
From the text: (§1) Healthy male C57BL/6J (C57) mice and 90-day BTBR T+tf/J (BTBR) mice (The Jackson Laboratory, Bar Harbor, ME, USA) fed ad libitum and housed in controlled sleep/wake cycle cages were used in the in vivo trial. Before the start of the experimentation, the animals were subjected to an acclimatization period of 1 week considering all the experimental procedures and protocols, compliant with the principles of care and welfare of laboratory animals approved by the Italian Ministry of Health (Italian Legislative Decree 2014/26) and European directives (EU Directive 2010/63). […]
(§2) All the values reported in the results are expressed as mean ± standard error of the mean (SEM) of N observations (N = number of animals). The statistical differences in the ALLO dosage and behavioral score were analyzed with one-way ANOVA, followed by Sidak’s multiple comparisons. […]

BTBR mice [3] = assay: Self Grooming test in BTBR mice; format: in vivo; conditions: monitored for 20 minutes, per os daily for 10 days, PEA-um 1 mg/kg, DHA 5 mg/kg (30 mg/kg DHA 17% titer)
From the text: as §1, §2
In the Self Grooming test, the mice were placed in an empty plexiglass cage (30x40 cm) and allowed to freely explore the arena. After 10 minutes of acclimatization, self grooming activity was monitored for 20 minutes. […]

BTBR mice [4] = assay: Sociability, three-chamber test in BTBR mice; format: in vivo; conditions: per os daily for 10 days, PEA-um 1 mg/kg, DHA 5 mg/kg (30 mg/kg DHA 17% titer)
From the text: as §1, §2
(§3) In the last 10-minute phase, the preference of the mouse in staying in the empty chamber or in the presence of the mouse was evaluated (Crawley JN, Designing mouse behavioral tasks relevant to autistic-like behaviors, Ment. Retard Dev. Disabil. Res. Rev. 2004, 10: 248-258). The time spent in each chamber was detected by a camera coupled to video tracking software.

C57 mice = assay: Sociability, three-chamber test in healthy C57 mice; format: in vivo; conditions: per os daily for 10 days, PEA-um 1 mg/kg, DHA 5 mg/kg (30 mg/kg DHA 17% titer)
From the text: as §1, §2, §3

plasma ALLO levels = assay: Plasma ALLO neurosteroid levels in BTBR mice; format: in vivo; conditions: plasma 10 days after starting daily per os treatment, PEA-um 1 mg/kg, DHA 5 mg/kg (30 mg/kg DHA 17% titer)
From the text: as §1, §2

[5] = test system: mice with a simil-autistic phenotype; conditions: cited from earlier work
autistic children = conditions: PEA-um 600 mg/day, 3-month treatment; cited from earlier work

CC(=O)[C@H]1CC[C@H]2[C@@H]3CC[C@H]4C[C@H](O)CC[C@]4(C)[C@H]3CC[C@]12C [Zulresso, allopregnanolone]
Risks during administration [1]: risk of excessive sedation, sudden loss of consciousness or dizziness

CCCCCCCCCCCCCCCC(=O)NCCO [PEA-um, N-palmitoylethanolamide]
Number of marbles buried in 15 min (obsessive behavior) (BTBR mice [2]): obsessively bury the marbles
Time spent self-grooming (repetitive behavior) (BTBR mice [3]): did not demonstrate any reduction in the time (s) spent self-grooming
Sociability (time spent in empty chamber or chamber occupied by a mouse) (BTBR mice [4]): did not demonstrate social improvements
Sociability (time spent in empty chamber or chamber occupied by a mouse) (C57 mice): enhanced sociability to another mouse
Plasma ALLO levels (plasma ALLO levels): significant reduction in plasma ALLO levels
Altered behavioral status [5]: modulating the altered behavioral status
Expression of pro-inflammatory hippocampal and serum cytokines IL-6, IL-1b and TNF-a [5]: reducing the expression of the pro-inflammatory hippocampal and serum cytokines IL-6, IL-1b and TNF-a
Clinical effect on autistic symptoms (autistic children): improves aggressiveness, cognitive and behavioral skills, and communication
